Source: patent US11471463B2, “Enhancers of cellular cannibalism for use to sensitize tumors to radiation therapy” (Institut Gustave-Roussy, priority 2017, dated 2022)
Peptide text beside a SMILES is read from it. * marks the point of attachment. Cbz = O=C(OCc1ccccc1)*; CH2F = FC*

Experiments:
HCT116 cells [1] = test: Cell death profiling by quantitative flow imaging of co-cultured irradiated and non-irradiated cells; format: cell-based, human; details: 4 grays, 24 hour co-culture; for Engulfment of neighboring cells by gamma-irradiated CMFDA+ cells (cell-in-cell internalization): Y27632 30 μM; for Engulfment of neighboring cells by gamma-irradiated CMFDA+ cells (cell-in-cell internalization) / Exposure of PS on the outer plasma membrane of irradiated CMFDA+ cells: Z-VAD-fmk 100 μM; for Exposure of PS on the outer plasma membrane of irradiated CMFDA+ cells: Roscovitine 10 μM
Protocol: Untreated HCT116 cells were labeled with CMFDA (green fluorescence, CMFDA^+) or CMTMR, (red fluorescence, CMTMR^+) and treated HCT116 cells with CMFDA (green fluorescence, CMFDA^+). The following cell mixtures were performed: untreated CMTMR^+ HCT116 cells were mixed with untreated CMFDA^+ HCT116 cells, or untreated CMTMR^+ HCT116 cells were mixed with treated CMFDA^+ HCT116 cells. Then, cells were co-cultured during 24 hours in the presence or absence of the pharmacological inhibitor of ROCK, Y27632 (30 μM), the pan-caspase inhibitor, Z-VAD-fmk (ZVAD, 100 μM), the inhibitor of caspase-1, Ac-YVAD-cmk (YVAD, 100 μM), the necroptosis inhibitor, Necrostatin-1 (NEC 1, 30 μM), the inhibitor of the vacuolar type H(+)-ATPase (V-ATPase) inhibiting autophagy, Bafilomycin A1 (BafA1, 50 nM), the inhibitor of Cdks with an anti-mitotic activity, Roscovitine (Rosco, 10 μM). After 24 hours of co-culture, both detached and adherent cells were collected and stained with Hoechst 33345 ([…]) during 1 hour at 37° C. in warmed complete medium. To detect phosphatidylserine (PS) exposure and plasma membrane permeability, labeled HCT116 cells were successively incubated with Biotin-AnnexinV (BD Pharmingen) as recommended by manufacturer, […] BV786-Streptavidin (BD Biosciences) and […] DRAQ7 (BioStatus) during 15 minutes at 25° C. After washing with PBS solution, samples were immediately analyzed using an imaging flow cytometer FlowSight® (Amnis®, part of EMD Millipore). Data were acquired at a 20× magnification, using INSPIRE software. The 405 nm, 488 nm, and 561 nm lasers were used for excitation. Brightfield, Annexin V-BV786, DRAQ7, CMFDA, CMTMR and Hoechst 33345 stainings were detected using respectively channels for 420-480 nm, 745-800 nm, 642-745 nm, 480-560 nm, 595-642 nm and 430-505 nm. At least 1000 events of cells per sample were analyzed. Additional single-labeled controls were prepared to normalize fluorescent signal across different channels. Acquired data were analyzed using the IDEAS analysis software (v6.1; Merck-Millipore). Gating strategy was the following. Cells were gated for focused cells using the Gradient RMS feature. Cells were gated for single cells using the aspect ratio and area features. For the cannibalism detection, cells were gated in the double positive CMFDA^+ and CMTMR^+ staining.
To detect PS exposure, plasma membrane permeability and cell cycle progression, cells were after co-culture sequentially labeled with specific fluorescent probes (such as FITC-conjugated AnnexinV, propidium iodide, and Hoechst 33342) and analyzed by flow cytometry. Both detached and adherent cells were collected and stained with Hoechst 33345 (10 ug/ml) during 1 hour at 37° C. in warmed complete medium. After washing with PBS, HCT116 cells were suspended in 1X binding buffer supplemented with fluorescein isothiocyanate (FITC)-conjugated Annexin V (BD Biosciences) and propidium iodide (PI, 1 μg/mL) (Sigma), as per manufacturer's instructions. Samples were then analyzed using LSRII flow cytometer (Becton Dickinson) and the FlowJo software v10. For confocal fluorescence microscopy, HCT116 cells were fixed after co-culture in 3,7% paraformaldehyde-PBS for 15 minutes and counterstained with 1 μg/mL Hoechst 33342 (Invitrogen) for 15 minutes. Then, cells were analyzed by confocal SPE microscope equipped with Apochromat 63×1.3 NA and 63×1.15 NA oil immersion objectives. The Leica Application Suite (LAS) software was used (Leica Microsystems).
Considering the diversity of lethal stimuli that can potentially initiate both non-cell autonomous and cell autonomous cell death modalities and the complexity of signaling pathways (involving (or not) caspases, cathepsins or granzymes) that control both processes, it was decided to simultaneously detect non-cell autonomous and cell autonomous death modalities elicited by IR. […]

HCT116 cells [2] = test: Screening for enhancers of IR-mediated cellular cannibalism (imaging flow cytometry, confocal microscopy validation); format: cell-based, human; details: 8 Gray, 10 μM compound, 24 hours of culture
Protocol: FIG. 4 Identification of cannibalism modulators triggered by ionizing radiation. Compounds from the Prestwick (A) and CEA (F) libraries were tested for their capacities to induce cellular cannibalism after ionizing radiation. Cannibal cells were detected after homotypic cultures of 8 gray γ-irradiation HCT116 cells in the presence or absence of […] of the Prestwick (A) and CEA […] library compounds. Each dot represents one compound. Representative images are shown in (B, G). (C, H) HCT116 cells were treated with the indicated drugs. After 24 h of treatment, cell death was monitored by staining with 3,3 dihexyloxacarbocyanine iodide (DiOC6(3)) and PI, and the percentage of dying (DiOC6(3)^low PI^−, open bars) and dead (DiOC6(3)^low PI^+, closed bars) cells was determined by cytofluorometry. Validation of the cannibalism inducers by fluorescent microscopy. Representative images (D, I) and quantification (E, J) are shown. Results are means±s.e.m. of triplicate determinations.
Then, the screening of a library of chemical compounds was developed in order to identify compounds able to induce IR-mediated cellular cannibalism. Thus, HCT116 cells that have been treated with a radiation dose of 8 Gray were stained either with orange CMTMR cell tracker or green CMFDA cell tracker and cultivated in presence of 10 μM of chemical compounds. After 24 hours of culture, cells have been stained with nuclear dye (5 μg/ml of Hoechst 33342 during 1 h at 37° C.) and analyzed using the FlowSight® Imaging Flow Cytometer for cellular cannibalism. Each of these compounds were classified according to their Z-score^47 and identified respectively 13 and 11 candidate compounds (FIGS. 4A, 4B, 4F and 4G). Then, the identified compounds were validated by combining flow cytometry approaches (in order to eliminate cytotoxic compounds by simultaneously monitoring the depolarization of the internal mitochondrial membrane and the plasma membrane permeability of the treated cells) with confocal microscopy approaches (to confirm the modulation of IR-induced cellular cannibalism by candidate compounds) (FIGS. 4C-E and 4H-J). […] Finally, 16 chemical compounds that are able to enhance the capacity of IR to trigger cellular cannibalism were identified (FIGS. 4E and 4J, Tables 1&2).

MCA205 cells [3] = test: Cell death monitoring by DiOC6(3)/PI staining; format: cell-based, mouse
Protocol: (§1) FIG. 5. Identification of cannibalism modulators as immunogenic cell death inducers. MCA205 (A) or CT26 (E, I, M, Q) cells were treated with the indicated drugs. After 24 h of coculture with the indicated treatment, cell death was monitored by staining DiOC6(3) and PI, and the percentage of dying (DiOC6(3)^low PI^−, open bars) and dead (DiOC6(3)^low PI^+, closed bars) cells was determined by cytofluorometry. (B-D) MCA205 cells or (F-H, J-L, N-P, R-T) CT26 cells cocultured after x irradiation with the indicated compounds were inoculated subcutaneously into the right flank of […] or BALB/c mice, respectively. Seven days later, the mice were rechallenged with live cells injected into the opposite flank, and tumor growth was monitored (five mice per group).
(§2) Considering that immunogenic cell death (ICD) inducers were identified (such as Digoxin, Digitoxin, Lanatoside C or Doxorubicin hydrochloride)^3, 4, 48-51) as IRCCE, the ability of these compounds to induce an antitumor immunity after radiotherapy was evaluated. […] Tumors were evaluated weekly using a common caliper. […] One week later, 5×10^5 untreated control cells were inoculated into the contralateral flank of mice and tumors were evaluated weekly using a common caliper. […] The percentage of dying cells in each condition was evaluated by determining with DiOC(6)3/IP staining (FIGS. 5E, 5I, 5M and 5Q). […]

MCA205 cells [4] = test: Anti-tumor vaccination assay, treated MCA205 cells inoculated into C57BL/6 mice and rechallenge; format: in vivo, mouse
Protocol: as §1, §2

CT26 cells = test: Anti-tumor vaccination assay, treated CT26 cells inoculated into BALB/c mice and rechallenge; format: in vivo, mouse; details: 8 Gy in presence of 10 μM compound for 24 hours
Protocol: as §1
FIG. 6. Tumor vaccination experiments. CT26 cells were treated for 24 hours with 10 μM VP331 (A, F, K), 10 μM Minaprine (B, G, L), 10 μM Lopa87 (C, H, M), 10 μM SG6163F (D, I, N), 10 μM Azaguanine-8 (8-aza) (E, J, O) alone or combined with 8 Gy ionizing radiation and inoculated (s.c.) into immunocompetent BALB/c mice, which were rechallenged at the opposite flank 7 days later with the same cancer cells. The percentage of tumor-free mice was evaluated three times a week for the following 38 days. Percentage of total tumor free mice (A-E), tumor free-mice at the first injection site (F to J, P) or at the second injection site (K to O, Q) are shown. (*P<0.05, **P<0.01, ***P<0.001, two-way ANOVA).
Considering that immunogenic cell death (ICD) inducers were identified (such as Digoxin, Digitoxin, Lanatoside C or Doxorubicin hydrochloride)^3, 4, 48-51) as IRCCE, the ability of these compounds to induce an antitumor immunity after radiotherapy was evaluated. First, a preclinical approaches was developed to study the immunological effects of IRCCE on two mouse models of carcinoma (colon CT26 carcinoma and fibrosarcoma MCA205). Initially, the ability of the combination of IRCCE+IR to trigger a specific anti-tumor immune response was appreciated using immunocompetent mice through anti-tumor vaccination assays. According to previously published studies^52, the injection of cancer cells succumbing to an immunogenic cell death (ICD) into immunocompetent mice must elicit a protective immune response that is specific for tumor antigens. Thus, 3×10^5 MCA205 cells were first treated with 10 μM of SG6163F for 24 hours. Then, treated cells were inoculated subcutaneously in 200 μl PBS into the lower flank of 8-week-old female C57BL/6 mice. One week later, 3×10^4 untreated control cells were inoculated into the contralateral flank of mice. Tumors were evaluated weekly using a common caliper. Animals bearing tumors that exceeded 20-25% body mass were euthanatized. […] Then, 3×10^6 CT26 cells were irradiated with 8 Gy in presence of 10 μM of SG6163F (FIGS. 5E and 5F), VP331 (FIGS. 5I and 5J), Minaprine dihydrochloride (FIGS. 5M and 5N) or LOPA87 (FIGS. 5Q and 5R) for 24 hours. Then, cells were inoculated as previously described subcutaneously in 200 μl PBS into the lower flank of 8-week-old female BALB/c mice. One week later, 5×10^5 untreated control cells were inoculated into the contralateral flank of mice and tumors were evaluated weekly using a common caliper. As previously mentioned, animals bearing tumors that exceeded 20-25% body mass were euthanatized. The percentage of dying cells in each condition was evaluated by determining with DiOC(6)3/IP staining (FIGS. 5E, 5I, 5M and 5Q). Finally, the ability of these compounds to repress the growth of cancer cells that have been injected 7 days after injection of irradiated and treated cancer cells was appreciated.
A second anti-tumor vaccination assay was done on CT26 mouse models of carcinoma as previously described. […]

SMILES: C[C@@H](N)[C@H]1CC[C@H](C(=O)Nc2ccncc2)CC1 [Y27632]
- Engulfment of neighboring cells by gamma-irradiated CMFDA+ cells (cell-in-cell internalization) (HCT116 cells [1]): repressed

SMILES: CO/C1=C\C(C)=C\[C@@H](C)[C@@H](O)[C@@H](C)C/C(C)=C/C=C/[C@H](OC)[C@@H]([C@@H](C)[C@@H](O)[C@H](C)[C@@]2(O)C[C@@H](O)[C@H](C)[C@@H](C(C)C)O2)OC1=O [bafilomycin A1, Bafilomycin A1]
- Frequency of dying cells (AnnexinV+DRAQ7- and DRAQ7+ cells) (HCT116 cells [1]; total, non-irradiated CMTMR+ and irradiated CMFDA+ cells, BafA1 50 nM): increased the frequency of dying cells

SMILES: O=C1NC(c2ccccc2)=N/C1=C\c1cc2ccccc2c2ccccc12 [SG6163F]
- Enhancement of IR-mediated cellular cannibalism (IRCCE) (HCT116 cells [2]): efficient cellular cannibalism enhancer
- Increase of cell death in vitro (MCA205 cells [3]; 10 μM compound alone, 24 hours): not able to induce a significant increase of cell death
- Increase of death of treated and irradiated cells (MCA205 cells [3]; 8 Gy of IR and 10 μM compound): absence of a significant increase of death
- Protective response after inoculation of untreated cells (MCA205 cells [4]; MCA205 cells treated with 10 μM compound alone, rechallenge one week later): did not exhibit a protective response
- Mice with protective response (MCA205 cells [4]; MCA205 cells treated with 8 Gy of IR and 10 μM compound): 3 of 5
- Frequency of mice showing a protective response (CT26 cells; first assay: CT26 cells, rechallenge one week later): significant increase in the frequency of mice showing a protective response
- Frequency of mice showing a protective response (CT26 cells; second assay: CT26 cells, rechallenge 7 days later): Significant increases in the frequency of mice showing a protective response

SMILES: CC[C@H](CO)Nc1nc(NCc2ccccc2)c2ncn(C(C)C)c2n1 [roscovitine, Roscovitine]
- Exposure of PS on the outer plasma membrane of irradiated CMFDA+ cells (HCT116 cells [1]): inhibited the exposure of PS

SMILES: COC(=O)CC(NC(=O)C(C)NC(=O)C(NC(=O)OCc1ccccc1)C(C)C)C(=O)CF (stereo not drawn) [Z-VAD-fmk, Benzyloxycarbonyl-Val-Ala-Asp(OMe)-fluoromethylketone] (Cbz-Val-Ala-Asp(OMe)-CH2F; configuration not given here)
- Engulfment of neighboring cells by gamma-irradiated CMFDA+ cells (cell-in-cell internalization) (HCT116 cells [1]): not affected
- Exposure of PS on the outer plasma membrane of irradiated CMFDA+ cells (HCT116 cells [1]): inhibited the exposure of PS
- Cellular degradation of engulfed CMTMR+ cells (HCT116 cells [1]; inhibitors 100 μM): significantly reduced
